This note sets out measurements from US9295247B2, “Method of using insect bait station” (ECOLAB USA INC., priority 2008, dated 2016).

Data set [1] has as its system bed bugs. Briefly: Example 2: bed bug mortality after exposure to solutions of minimum risk (25(b)) pesticides via artificial membrane feeding system. In kind it is in vivo. As to conditions: for efficacy against bed bugs: exposed to lower concentrations of the solutions; for level of efficacy against bed bugs relative to the other solutions: within 120 hours of exposure. The method, then: To determine whether consumption of ingredients listed under section 25(b) of the Federal Insecticide, Fungicide, and Rodenticide Act kills bed bugs, several mixtures of salt, citric acid, potassium sorbate, sodium lauryl sulfate (SLS), castor oil, sesame oil, cinnamon oil, garlic oil, citronella oil, lemongrass oil, peppermint oil, cedar oil, clove oil, rosemary oil, thyme oil, geranium oil, geraniol, and flaxseed oil were made. Oil based solutions were dissolved into 2% sodium lauryl sulfate (“SLS”) and water mixtures. Remaining ingredients were dissolved in water. Concentrations of 1%, 5%, and 50% of each solution were made. Control solutions consisted of either human blood or water depending on the test solutions in each experiment. Groups of twenty bed bugs were offered each solution via the artificial membrane feeding system described above for 60 minutes. […] Post-exposure mortality was recorded at 24 hours and 120 hours after exposure to the active solution.

The subject of data set [2] is bed bugs. The data set is described as follows: Example 3: feeding and mortality of bed bugs offered varying concentrations of sodium chloride in water. In kind it is in vivo. The source says: To determine optimum concentrations of sodium chloride solutions (for both feeding and mortality), bed bugs were offered the following concentrations sodium chloride diluted in water on a weight percent basis: 0, 0.05, 0.25, 0.5%, 1%, 2%, 3%, 4%, 5%, 6%, 7%, 8%, 9%, 10%, 12%, 14%, 16%, 18%, 20%, 25%, 30%, 35%, 40%, 50%, 60%, 70%, 80%, 90%, and 100%.

The test system of data set [3] is bed bugs. Briefly: Example 1: post-consumption mortality of bed bugs fed on solutions via artificial membrane feeding system. In kind it is in vivo. Particulars: solution of 0.05 grams boric acid and 4.95 milliliters phosphate buffer pH 7.4; within 24 hours. An excerpt:
Boric acid is an insecticidal dust that causes death upon consumption by most insects with chewing mouthparts. Bed bugs have blood-feeding, piercing/sucking mouthparts that limit their ability to pick up and consume the insecticidal dust in its powder form. To determine whether consumption of boric acid kills bed bugs, several mixtures of boric acid and phosphate buffer, DUPONT™ ADVION™ fire ant bait including indoxacarb and phosphate buffer, and just phosphate buffer solutions were made. […] Multiple groups of ten bed bugs fed on the solutions via artificial membrane feeding systems as described above, and post-consumption mortality was recorded. […]

Data set [4] relates to bed bugs.
Protocol: For the following Examples an artificial membrane feeding station was prepared and used. […] The Parafilm™ was stretched to <5.0 mils thick. The liquid bait identified in the various Examples below was placed in the sealed container.
Each solution was offered to groups of 20 bed bugs via the artificial feeding stations described above. After approximately 60 minutes, the containers of 20 bed bugs were removed from the feeding station and the number that fed to completion was recorded. Post-exposure mortality was recorded at 4 hours, 24 hours and/or 48 hours after exposure to the active solution.

For `CC(C)=CCC/C(C)=C/CO` [geraniol oil, geraniol], the “efficacy against bed bugs” value in the data set on bed bugs [1] is on record as “some efficacy”.

For `O=C(O)CC(O)(CC(=O)O)C(=O)O` [citric acid], in the data set on bed bugs [1], the “efficacy against bed bugs” value is “some efficacy” and the “level of efficacy against bed bugs relative to the other solutions” value was “highest observed levels of efficacy”.

`[Cl-].[Na+]` [sodium chloride]: in the data set on bed bugs [1], the “efficacy against bed bugs” value is “some efficacy” and the “level of efficacy against bed bugs relative to the other solutions” value is given as “highest observed levels of efficacy”. Further, the mortality entry in the data set with bed bugs [2] (all sodium chloride solutions up to 70% wt. sodium chloride) is on record as “some level of mortality”. In the data set on bed bugs [2] (just from bed bugs tasting the solutions), the “sodium chloride concentration up to which death was recorded” value is given as “up to 70 weight percent”. The “sodium chloride concentration up to which bed bugs feed to completion or engorge” value in the data set on bed bugs [2] (sodium chloride in water, offered about 60 minutes) was “up to 5%”. For the same compound, in the data set on bed bugs [2] (solutions containing 6-12% wt. sodium chloride, within 48 hours), the “highest levels of mortality” value is on record as “up to 70%”. For the same compound, the “sodium chloride concentration up to which bed bugs fully engorge themselves” value in the data set on bed bugs [2] (solutions of sodium chloride and water) is “up to 5 weight percent”.

As for `OB(O)O` [boric acid], the “efficacy on bed bugs that consumed the solution” value with bed bugs [3] was determined as 100%. Besides, in the data set with bed bugs [4] (5% boric acid added to the sodium chloride solution), the increase in mortality is on record as 25-60%. Further, the “effect on mortality compared to sodium chloride base solutions without boric acid” value in the data set with bed bugs [4] (addition of 5% boric acid) is listed as “significantly enhanced mortality”.

Consider `CCCCCCCCCCCCOS(=O)(=O)[O-].[Na+]` [SLS, sodium lauryl sulfate], for which, in the data set with bed bugs [1], the “efficacy against bed bugs” value is “some efficacy” and the “level of efficacy against bed bugs relative to the other solutions” value is “highest observed levels of efficacy”.

As for `C/C=C/C=C/C(=O)[O-].[K+]` [potassium sorbate], in the data set on bed bugs [1] (within 120 hours, bed bugs that consumed the solutions, concentrations of 1%, 5%, 50% made), the efficacy turned out to be 0%.
